In PMC7734006 (Cancer Science, 2020):

How the values were obtained:
[1] = Plasma alectinib pharmacokinetics; assay type: in vivo, human
[2] = test system: relapsed or refractory ALCL; conditions: 6 of 17 patients; cited from earlier work
[3] = test system: relapsed or refractory ALCL; conditions: 36 pediatric patients treated weekly; cited from earlier work
[4] = test system: relapsed or refractory systemic ALCL; conditions: cited from earlier work
[5] = patients who achieved CR with BV

CCc1cc2c(cc1N1CCC(N3CCOCC3)CC1)C(C)(C)c1[nH]c3cc(C#N)ccc3c1C2=O [alectinib]
Time to steady-state peak concentration (median) ([1]; cohort A: younger than 15 years, 300 mg/d): 4 h
Time to steady-state peak concentration (median) ([1]; cohort B: younger than 15 years, 600 mg/d): 5 h
Time to steady-state peak concentration (median) ([1]; cohort C: 15 years or older, 600 mg/d): 4 h
Peak concentration of alectinib ([1]; the patient who died following disease progression after the first course (cohort C)): 16.97 mg/mL

C#CCC(Cc1cnc2nc(N)nc(N)c2n1)c1ccc(C(=O)N[C@@H](CCC(=O)O)C(=O)O)cc1 (stereo partly shown) [pralatrexate]
Objective response rate [2]: 35%

CC[C@]1(O)C[C@@H]2CN(CCc3c([nH]c4ccccc34)[C@@](C(=O)OC)(c3cc4c(cc3OC)N(C)[C@H]3[C@@](O)(C(=O)OC)[C@H](OC(C)=O)[C@]5(CC)C=CCN6CC[C@]43[C@@H]65)C2)C1 [vinblastine]
5-year EFS rate [3]: 30%
CR rate [3]: 83%

BV: anti-CD30 Ab drug conjugated to the microtubule-disrupting agent, monomethyl auristatin E
CR rate ([4]; 33 of 58 patients): 57%
Objective response rate ([4]; 50 of 58 patients): 86%
Patients without recurrence with no treatment after a BV treatment regime [4]: approximately 15%
Peripheral neuropathies, patients [4]: 41%
5-year OS [4, 5]: 79%
5-year PFS [4, 5]: 57%
